{
  "source": "PubChem BioAssay AID1963853",
  "about": "(Molecular Pharmacology Branch, DTP, NCI, 2024);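 further: spheroids exposed to compounds for seven days before readout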",
  "system": "266295-075-R-J1-PDC spheroid viability",
  "assay": "Anticancer human tumor 266295-075-R-J1-PDC patient-derived head and neck squamous carcinoma cell line growth inhibition [POLQ]",
  "conditions": "spheroids with HUVEC and MSC; for IC50: curve of first compound; for viability, T/C: stronger effect = lower value",
  "procedure,_shortened": "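Three-cell-type spheroids modelling solid tumor plus stroma served as the readout system; POL inhibitors were tested individually and in combination, concentration ranges set by clinical Cmax where known.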",
  "key": {"[1]": {"conditions": "second compound 0.0316 µM, first compound 0.0316 µM"}, "[2]": {"conditions": "second compound 0.0316 µM, first compound 0.1 µM"}, "[3]": {"conditions": "second compound 0.0316 µM, first compound 0.316 µM"}, "[4]": {"conditions": "second compound 0.0316 µM, first compound 1 µM"}, "[5]": {"conditions": "second compound 0.0316 µM, first compound 3.16 µM"}, "[6]": {"conditions": "second compound 0.0316 µM, first compound 10 µM"}, "[7]": {"conditions": "second compound 0.1 µM, first compound 0.0316 µM"}, "[8]": {"conditions": "second compound 0.1 µM, first compound 0.1 µM"}, "[9]": {"conditions": "second compound 0.1 µM, first compound 0.316 µM"}, "[10]": {"conditions": "second compound 0.1 µM, first compound 1 µM"}, "[11]": {"conditions": "second compound 0.1 µM, first compound 3.16 µM"}, "[12]": {"conditions": "second compound 0.1 µM, first compound 10 µM"}, "[13]": {"conditions": "second compound 0.316 µM, first compound 0.0316 µM"}, "[14]": {"conditions": "second compound 0.316 µM, first compound 0.1 µM"}, "[15]": {"conditions": "second compound 0.316 µM, first compound 0.316 µM"}, "[16]": {"conditions": "second compound 0.316 µM, first compound 1 µM"}, "[17]": {"conditions": "second compound 0.316 µM, first compound 3.16 µM"}, "[18]": {"conditions": "second compound 0.316 µM, first compound 10 µM"}, "[19]": {"conditions": "second compound 1 µM, first compound 0.0316 µM"}, "[20]": {"conditions": "second compound 1 µM, first compound 0.1 µM"}, "[21]": {"conditions": "second compound 1 µM, first compound 0.316 µM"}, "[22]": {"conditions": "second compound 1 µM, first compound 1 µM"}, "[23]": {"conditions": "second compound 1 µM, first compound 3.16 µM"}, "[24]": {"conditions": "second compound 1 µM, first compound 10 µM"}, "[25]": {"conditions": "second compound 3.16 µM, first compound 0.0316 µM"}, "[26]": {"conditions": "second compound 3.16 µM, first compound 0.1 µM"}, "[27]": {"conditions": "second compound 3.16 µM, first compound 0.316 µM"}, "[28]": {"conditions": "second compound 3.16 µM, first compound 1 µM"}, "[29]": {"conditions": "second compound 3.16 µM, first compound 3.16 µM"}, "[30]": {"conditions": "second compound 3.16 µM, first compound 10 µM"}, "[31]": {"conditions": "second compound 10 µM, first compound 0.0316 µM"}, "[32]": {"conditions": "second compound 10 µM, first compound 0.1 µM"}, "[33]": {"conditions": "second compound 10 µM, first compound 0.316 µM"}, "[34]": {"conditions": "second compound 10 µM, first compound 1 µM"}, "[35]": {"conditions": "second compound 10 µM, first compound 3.16 µM"}, "[36]": {"conditions": "second compound 10 µM, first compound 10 µM"}},
  "data": [
    {"smiles": "CC(C)n1c(=O)n(C)c2cnc3cc(F)c(-c4ccc(OCCCN5CCCCC5)nc4)cc3c21", "note": "+ COC1C(OC(N)=O)C(O)C(Oc2ccc3c(O)c(NC(=O)c4ccc(O)c(CC=C(C)C)c4)c(=O)oc3c2C)OC1(C)C", "values": [
      {"measurement": "IC50", "setting": "second compound 0.0316 µM", "value": "> 10", "unit": "µM"},
      {"measurement": "IC50", "setting": "second compound 0.1 µM", "value": "> 10", "unit": "µM"},
      {"measurement": "IC50", "setting": "second compound 0.316 µM", "value": "> 10", "unit": "µM"},
      {"measurement": "IC50", "setting": "second compound 1 µM", "value": "> 10", "unit": "µM"},
      {"measurement": "IC50", "setting": "second compound 3.16 µM", "value": "> 10", "unit": "µM"},
      {"measurement": "IC50", "setting": "second compound 10 µM", "value": "> 10", "unit": "µM"},
      {"measurement": "viability, T/C", "setting": "[1]", "value": 102, "unit": "%"},
      {"measurement": "viability, T/C", "setting": "[2]", "value": 86.7, "unit": "%"},
      {"measurement": "viability, T/C", "setting": "[3]", "value": 97.2, "unit": "%"},
      {"measurement": "viability, T/C", "setting": "[4]", "value": 93.8, "unit": "%"},
      {"measurement": "viability, T/C", "setting": "[5]", "value": 83, "unit": "%"},
      {"measurement": "viability, T/C", "setting": "[6]", "value": 72.2, "unit": "%"},
      {"measurement": "viability, T/C", "setting": "[7]", "value": 105, "unit": "%"},
      {"measurement": "viability, T/C", "setting": "[8]", "value": 95.5, "unit": "%"},
      {"measurement": "viability, T/C", "setting": "[9]", "value": 90.3, "unit": "%"},
      {"measurement": "viability, T/C", "setting": "[10]", "value": 96.5, "unit": "%"},
      {"measurement": "viability, T/C", "setting": "[11]", "value": 82.8, "unit": "%"},
      {"measurement": "viability, T/C", "setting": "[12]", "value": 74.5, "unit": "%"},
      {"measurement": "viability, T/C", "setting": "[13]", "value": 103, "unit": "%"},
      {"measurement": "viability, T/C", "setting": "[14]", "value": 114, "unit": "%"},
      {"measurement": "viability, T/C", "setting": "[15]", "value": 90.7, "unit": "%"},
      {"measurement": "viability, T/C", "setting": "[16]", "value": 100, "unit": "%"},
      {"measurement": "viability, T/C", "setting": "[17]", "value": 93.9, "unit": "%"},
      {"measurement": "viability, T/C", "setting": "[18]", "value": 57.2, "unit": "%"},
      {"measurement": "viability, T/C", "setting": "[19]", "value": 121, "unit": "%"},
      {"measurement": "viability, T/C", "setting": "[20]", "value": 99.5, "unit": "%"},
      {"measurement": "viability, T/C", "setting": "[21]", "value": 91.8, "unit": "%"},
      {"measurement": "viability, T/C", "setting": "[22]", "value": 86.3, "unit": "%"},
      {"measurement": "viability, T/C", "setting": "[23]", "value": 74.8, "unit": "%"},
      {"measurement": "viability, T/C", "setting": "[24]", "value": 77.7, "unit": "%"},
      {"measurement": "viability, T/C", "setting": "[25]", "value": 92.8, "unit": "%"},
      {"measurement": "viability, T/C", "setting": "[26]", "value": 85.2, "unit": "%"},
      {"measurement": "viability, T/C", "setting": "[27]", "value": 101, "unit": "%"},
      {"measurement": "viability, T/C", "setting": "[28]", "value": 78.9, "unit": "%"},
      {"measurement": "viability, T/C", "setting": "[29]", "value": 74.9, "unit": "%"},
      {"measurement": "viability, T/C", "setting": "[30]", "value": 66.2, "unit": "%"},
      {"measurement": "viability, T/C", "setting": "[31]", "value": 124, "unit": "%"},
      {"measurement": "viability, T/C", "setting": "[32]", "value": 88.4, "unit": "%"},
      {"measurement": "viability, T/C", "setting": "[33]", "value": 78.3, "unit": "%"},
      {"measurement": "viability, T/C", "setting": "[34]", "value": 78.5, "unit": "%"},
      {"measurement": "viability, T/C", "setting": "[35]", "value": 83.3, "unit": "%"},
      {"measurement": "viability, T/C", "setting": "[36]", "value": 66.3, "unit": "%"}
    ]},
    {"smiles": "CC1COCCN1c1cc(-c2ccnn2C)c2ccnc(-c3ccn[nH]3)c2n1", "note": "(centres undefined) + COC1C(OC(N)=O)C(O)C(Oc2ccc3c(O)c(NC(=O)c4ccc(O)c(CC=C(C)C)c4)c(=O)oc3c2C)OC1(C)C", "values": [
      {"measurement": "IC50", "setting": "second compound 0.0316 µM", "value": 4.35, "unit": "µM"},
      {"measurement": "IC50", "setting": "second compound 0.1 µM", "value": 2.01, "unit": "µM"},
      {"measurement": "IC50", "setting": "second compound 0.316 µM", "value": 1.91, "unit": "µM"},
      {"measurement": "IC50", "setting": "second compound 1 µM", "value": 3.89, "unit": "µM"},
      {"measurement": "IC50", "setting": "second compound 3.16 µM", "value": 4.51, "unit": "µM"},
      {"measurement": "IC50", "setting": "second compound 10 µM", "value": 1.97, "unit": "µM"},
      {"measurement": "viability, T/C", "setting": "[1]", "value": 91.2, "unit": "%"},
      {"measurement": "viability, T/C", "setting": "[2]", "value": 84.7, "unit": "%"},
      {"measurement": "viability, T/C", "setting": "[3]", "value": 71.2, "unit": "%"},
      {"measurement": "viability, T/C", "setting": "[4]", "value": 63.3, "unit": "%"},
      {"measurement": "viability, T/C", "setting": "[5]", "value": 54.3, "unit": "%"},
      {"measurement": "viability, T/C", "setting": "[6]", "value": 42.1, "unit": "%"},
      {"measurement": "viability, T/C", "setting": "[7]", "value": 91.7, "unit": "%"},
      {"measurement": "viability, T/C", "setting": "[8]", "value": 92.2, "unit": "%"},
      {"measurement": "viability, T/C", "setting": "[9]", "value": 65.8, "unit": "%"},
      {"measurement": "viability, T/C", "setting": "[10]", "value": 58, "unit": "%"},
      {"measurement": "viability, T/C", "setting": "[11]", "value": 48.4, "unit": "%"},
      {"measurement": "viability, T/C", "setting": "[12]", "value": 41.6, "unit": "%"},
      {"measurement": "viability, T/C", "setting": "[13]", "value": 89.9, "unit": "%"},
      {"measurement": "viability, T/C", "setting": "[14]", "value": 90.6, "unit": "%"},
      {"measurement": "viability, T/C", "setting": "[15]", "value": 63.7, "unit": "%"},
      {"measurement": "viability, T/C", "setting": "[16]", "value": 61.3, "unit": "%"},
      {"measurement": "viability, T/C", "setting": "[17]", "value": 43.6, "unit": "%"},
      {"measurement": "viability, T/C", "setting": "[18]", "value": 38.7, "unit": "%"},
      {"measurement": "viability, T/C", "setting": "[19]", "value": 110, "unit": "%"},
      {"measurement": "viability, T/C", "setting": "[20]", "value": 91.2, "unit": "%"},
      {"measurement": "viability, T/C", "setting": "[21]", "value": 79.1, "unit": "%"},
      {"measurement": "viability, T/C", "setting": "[22]", "value": 62.5, "unit": "%"},
      {"measurement": "viability, T/C", "setting": "[23]", "value": 53.3, "unit": "%"},
      {"measurement": "viability, T/C", "setting": "[24]", "value": 41, "unit": "%"},
      {"measurement": "viability, T/C", "setting": "[25]", "value": 98.2, "unit": "%"},
      {"measurement": "viability, T/C", "setting": "[26]", "value": 82.8, "unit": "%"},
      {"measurement": "viability, T/C", "setting": "[27]", "value": 77.2, "unit": "%"},
      {"measurement": "viability, T/C", "setting": "[28]", "value": 63.9, "unit": "%"},
      {"measurement": "viability, T/C", "setting": "[29]", "value": 53.9, "unit": "%"},
      {"measurement": "viability, T/C", "setting": "[30]", "value": 41.9, "unit": "%"},
      {"measurement": "viability, T/C", "setting": "[31]", "value": 87.6, "unit": "%"},
      {"measurement": "viability, T/C", "setting": "[32]", "value": 94.7, "unit": "%"},
      {"measurement": "viability, T/C", "setting": "[33]", "value": 75.7, "unit": "%"},
      {"measurement": "viability, T/C", "setting": "[34]", "value": 57.1, "unit": "%"},
      {"measurement": "viability, T/C", "setting": "[35]", "value": 47.8, "unit": "%"},
      {"measurement": "viability, T/C", "setting": "[36]", "value": 38.1, "unit": "%"}
    ]}
  ]
}
